Assay results as given in patent US8877773B2, “Methods for treating chronic obstructive pulmonary disease” (Indiana University Research and Technology Corporation, priority 2009, dated 2014).
Entries after “also recorded” stand apart in the source; their conditions may differ.

Columns and labels:
Type in all cases: in vivo, rat
control rats = experiment: Baseline behavior and cardiovascular activity in control rats; conditions: control rats (no 1-AG or NaLac), 30 mg/kg i.p., 30 min following injection
Procedure: In experiments 4-6, rats were made panic vulnerable with 1-AG. 5 days after 1-AG onset, in a counterbalanced design, rats received intraperitoneal (i.p.) injections of treatment drug or vehicle 30 min prior to i.v. infusions. […] In experiment 5, baseline in an open field (OF) behavior test of anxiety was assessed (n=8) prior to 1-AG infusions. […] Immediately following the NaLac challenge, rats were placed in the OF test. […] In experiment 6,1-AG treated rats received an injection of an alternative ORX1 receptor antagonist (30 mg/kg SB408124 (N-(6,8-Difluoro-2-methyl-4-quinolinyl)-N′-(4-(dimethylamino)phenyl)urea), Tocris, in 0.2 ml/100 g volume DMSO, n=4) or vehicle (0.2 ml/100 g volume DMSO, n=6) 30 min prior to NaLac. In experiment 7, control rats (no 1-AG or NaLac treatment) were assessed in a SI test.
Adult male Sprague-Dawley rats were anesthetized and surgically implanted with telemetrical probes to measure cardiovascular activity prior to and during lactate infusions. […] 1960, Tocris, in 0.2 ml/100 g volume DMSO, n=7] or vehicle (0.2 ml/100 g volume DMSO, n=7). Cardiovascular activity and SI tests were monitored 30 min following injection at similar time points.

[1] = tested on: rats exposed to hypercarbic gas; experiment: Hypercarbic gas (20% CO2) challenge: MAP, HR, locomotor activity, fecal pellets
Procedure: Prior to surgery, rats were anesthetised with a nose cone connected to an isoflurane system (MGX Research Machine; Vetamic, Rossville Ind., USA) during the surgery. […] Briefly, cardiovascular responses were measured by a femoral arterial line connected to a telemetric probe that contained a pressure transducer [Cat. no. C50-PXT, Data Sciences International (DSI), St. Paul, Minn., USA]. DSI dataquest software was used to monitor and record MAP and HR. For the duration of each experiment, MAP and HR were recorded continuously in freely moving conscious rats. Data were analyzed during the period 5 min prior to, 5 min during, and 5 min following the gas challenges. The data reported are changes in HR and MAP, expressed in 1 min bins, relative to the average of the baseline measurement (t−5 min to t−1 min) from each rat.
Flow cages (12 in. width×12 in. height×24 in. length) were custom built using Plexiglas®. When the lid of the cage was latched, gases could only enter the cage through an inlet connector (for the gas infusion) and could only exit the cage through an outlet connector. The gas flow into the cages was controlled using a 2-stage regulator (Praxair, Inc., Danbury, Conn., USA) at a pressure of 0.6 Bar.
(§1) On day 1, rats (n=3/group) were selected from their home cages and placed into experimental cages containing atmospheric air. […] Fecal pellets were counted in cages at the end of gas challenges. In order to assess anxiety-like behavioural responses following exposure to hypercarbic gas, rats were immediately transferred to an adjacent room and place in the center square of an open-field box for a 5 min test. On day 2, the experiment was repeated, but the treatments were reversed for each rat. For instance, rats that received atmospheric gas challenge on day 1 received the hypercapnic gas challenge on day 2.
(§2) All rats received hypercarbic gas infusions as described in detail in Experiment 11. […] Blood pressure, heart rate, locomotor activity, number of fecal pellets and anxiety-like behavior were assessed as described in Experiment 11.
(§3) Dependent variables for analyses of cardiovascular responses (HR, MAP) and locomotor activity were analysed using a […], using gas infusion as the between-subjects factor and time as a within-subjects factor. Dependent variables for the number of fecal pellets and open-field anxiety test (i.e., time spent in each section, line crossings) were analysed using a one-way ANOVA with gas infusion in Experiment 11 and drug treatment in Experiment 12 as the between-subjects factors. […] Within-subjects comparisons were also made on the MAP and HR measures using a Dunnett's test for multiple comparisons with a single control using the 5 Min baseline measurement as the control. The alpha level was set at 0.05 in all cases.

[2] = tested on: rats exposed to hypercarbic gas; experiment: Hypercarbic gas (20% CO2) challenge: open-field test; conditions: 30 mg/kg i.p.
Procedure: as §1
The open-field arena covered an area of 90 cm×90 cm, with 40 cm high walls. The open-field arena was divided into a 6×6 grid of equally-sized squares using black tape (36 total squares) with 4 squares forming the center; 12 squares forming the middle perimeter; and 20 squares forming the outer perimeter. The test started by placing a rat in the center. The behavior of each rat in the open-field arena was recorded on video and scored afterwards by an observer (PLJ) blind to the experimental treatment of each rat. Time spent in each region of the open-field was recorded. In addition, locomotor activity was assessed by counting the number of times the rat's entire body (excluding tail) completely crossed into another square.
as §2, §3

[3] = 20% CO2, 30 mg/kg i.p. 30 min prior

Cc1nc2ccc(NC(=O)Nc3ccnc4cccnc34)cc2o1 [SB334867, N-(2-Methyl-6-benzoxazolyl)-N′-1,5-naphthyridin-4-yl urea]
HR in control rats (control rats): had no effect; also recorded: does not alter; also recorded: did not alter | MAP in control rats (control rats): had no effect; also recorded: does not alter; also recorded: did not alter | hypercarbic gas-induced changes in MAP (pressor response) ([1]; 20% CO2/normoxic gas 5 min, 30 mg/kg i.p. 30 min prior): attenuated | hypercarbic gas-induced bradycardia ([1]; 20% CO2/normoxic gas 5 min, 30 mg/kg i.p. 30 min prior, 30 mg/kg): without altering; also recorded: had no effect | hypercarbic gas-induced increase in numbers of fecal pellets [1, 3]: attenuated | locomotor responses over time prior to, during or after hypercarbic gas [1, 3]: Neither the vehicle nor SB334867 treated rats had a change in locomotor responses | locomotor activity prior to hypercarbic gas infusion ([1]; baseline, 30 mg/kg i.p., vs vehicle-treated rats): higher | time spent in the center of open field after hypercarbic gas ([2]; between groups): No differences | time spent in the outer perimeter of open field after hypercarbic gas ([2]; between groups): No differences | hypercapnic gas-induced anxiety responses ([2]; 20% CO2/normoxic gas): attenuated | time in the middle perimeter region of open field after hypercarbic gas ([2]; SB/CO2 vs Veh/CO2 group): significantly more time
